We go through 1 compound from patent US4183954A, “Benzoic acid derivatives and therapeutic composition containing the same” (Seuref A.G., priority 1977, dated 1980).

Series [1] can be described thus: Acute toxicity (LD50), method of Lichtfield and Wilcoxon, rats. The conditions noted are these: rat, in vivo.
The nature of series [2]: Acute toxicity (LD50), method of Lichtfield and Wilcoxon, mice. The conditions noted are these: mouse, in vivo.
Series [3] can be described thus: Chronic toxicity test, 3 months. Format: in vivo, rats. From the text: The chronic toxicity tests confirmed the low toxicity of the product.
For series [4], the system named is choleresis. Kind of series: Choleretic activity. The conditions noted are these: rats. Format: in vivo.
Series [5] has as its system hepatic steatosis and hypercholesterolemia induced by Handler's steatogenic diet. The series is described as follows: Anti-steatotic activity (Handler's steatogenic diet). It counts as in vivo. The conditions noted are these: rats, 50 mg/kg daily. On the procedure:
Administration of the test material to rats at a daily dosage of 50 mg/kg inhibits the hepatic steatosis and the hypercholesterolemia induced by Handler's steatogenic diet.

In series [6] the test system is hypercholesterolemia induced by Twin-Triton. Kind of series: Hypocholesterolemic activity (Twin-Triton-induced hypercholesterolemia). The conditions noted are these: rats, 200 mg/kg Twin-Triton i.p. Format: in vivo.
Series [7] has as its system experimental phlogistic reaction. Kind of series: Antiphlogistic activity, experimental phlogistic reaction. It counts as in vivo. The conditions noted are these: rats, intraperitoneal or oral, 50 mg/kg to 300 mg/kg. Here is the method:
Intraperitoneal or oral administration of the test material at dosages within the range of from 50 mg/kg to 300 mg/kg inhibits the experimental phlogistic reaction induced in rats.

Series [8] relates to oedema of the rat's paw induced by dextran. Kind of series: Antiphlogistic activity, oedema of the rat's paw induced by dextran. Format: in vivo.
Series [9] relates to oedema of the rat's paw induced by carageenin. Kind of series: Antiphlogistic activity, oedema of the rat's paw induced by carageenin. Format: in vivo.
Series [10] has as its system granulomatous reaction induced by the sub-cutaneous penetration of foreign bodies. The series is described as follows: Experimental granuloma test. Format: in vivo.
The subject of series [11] is anaphylactic reaction and death induced in guinea-pigs sensitized with horse serum. The series is described as follows: Antianaphylactic activity. Format: in vivo. Here is the method:
Administration to […] of the test compound at a dosage of 60 mg/kg by the oral route or of 50 mg/kg by the intraperitoneal route inhibits the anaphylactic reaction and the death induced in guinea-pigs sensitized with horse serum.

As usually defined, the LD50 is the dose at which mortality reaches 50%. Take `CC(C)(Oc1cccc2ccccc12)C(=O)Nc1ccc(C(=O)O)cc1` [Compound 1, p-[α-(α-naphthoxy)isobutyramido]benzoic acid]: the LD50 is 425 mg/kg in series [1] (ip, intraperitoneal); 2200 mg/kg in series [1] (oral); 395 mg/kg in series [2] (ip, intraperitoneal); 2500 mg/kg in series [2] (oral). For the same compound, the intolerance and toxicity result in [3] (50 mg/kg, 3 months) was “did not induce any intolerance and any toxicity”. The “blood, glycemia, transaminases, urinary excretion and azotemia” value in [3] (50 mg/kg, 3 months, treated rats, beginning and end of treatment) was “failed to disclose any significant change or pathological modification”. Also, the “chronic toxicity (overall)” value in series [3] (chronic toxicity tests) is reported as “low toxicity”. The “elimination of biliary pigments or cholesterol” value in [4] is on record as “increase concerns the elimination of either the biliary pigments or cholesterol”. The choleresis result in series [4] (intraperitoneal, 20 mg/kg) is “significant increase of choleresis”; in [4] (oral, 100 mg/kg) it was “significant increase of choleresis”. Further, in series [4] (versus dehydrocholic acid), the “increase of the choleresis compared with dehydrocholic acid” value is “more substantial and more extended than that induced by dehydrocholic acid”. Further, the “inhibition of hepatic steatosis” value in [5] is “inhibits”. Further, the inhibition of hypercholesterolemia entry in [5], in series [6] (100 mg/kg intraperitoneal) and in [6] (300 mg/kg oral) was “inhibits” each time. The “inhibition of experimental phlogistic reaction” value in series [7] was “inhibits”. Further, the “inhibition of paw oedema induced by dextran” value in series [8] is “inhibits”. Moreover, the “inhibition of paw oedema induced by carageenin” value in [9] is on record as “inhibits”. Also, in [10], the “inhibition of granulomatous reaction” value is reported as “inhibits”. Moreover, the “inhibition of anaphylactic reaction and death” value in series [11] (50 mg/kg intraperitoneal) and in [11] (60 mg/kg oral) was “inhibits” each time.
